Reference: PMC3740399, “Carfilzomib in multiple myeloma patients with renal impairment: pharmacokinetics and safety” (Leukemia, 2013)

Legend:
[1] = design: species or system human; conditions: in vivo
Description: (§1) All patients who received at least one dose of carfilzomib were included in the safety population. Incidence, severity and duration of AEs, including all serious AEs and those considered to be treatment related, and shifts to or from abnormal relative to baseline in key laboratory parameters were categorized according to the National Cancer Institute's Common Terminology Criteria for Adverse Events (CTCAE) Version 3.0.[16] […] ECGs were performed in most patients to satisfy regulatory requirements, but were not required by the study protocol.

[2] = tested on: proteasome chymotrypsin-like activity; assay: Proteasome chymotrypsin-like activity in whole blood (RBC) and PBMC, fluorogenic substrate (LLVY-AMC) assay; assay type: in vivo, human
Description: Proteasome chymotrypsin-like activity was measured in whole-blood (red blood cells, RBC) and isolated peripheral blood mononuclear cell samples using a fluorogenic-based substrate assay as previously described.[15] Blood for PDn analysis was collected before carfilzomib dosing and 1 h after carfilzomib dosing on days 1, 2 and 8 of Cycle 1 and on day 1 of Cycle 2.
Figure 2 Proteasome inhibition following the first dose of carfilzomib. Proteasome activity was measured in whole-blood and peripheral blood mononuclear cells before and 1 h after the first dose of 15 mg/m^2 carfilzomib on day 1 of Cycle 1 (using LLVY-AMC substrate). Data are presented as mean activity (±s.e.m.) relative to pre-dose values for each group. The number of patient samples for each Group is noted. Group 1, normal renal function; Group 2, mild renal impairment; Group 3, moderate renal impairment; Group 4, severe renal impairment; Group 5, chronic dialysis.

[3] = in vivo
Description: Carfilzomib was administered by IV infusion over 2–10 min on days 1, 2, 8, 9, 15 and 16 of a 28-day cycle for up to 12 cycles. The dose of carfilzomib in Cycle 1 was 15 mg/m^2. If this dose was tolerated, it was increased to 20 mg/m^2 at Cycle 2, and to 27 mg/m^2 at Cycle 3 and for all subsequent cycles as tolerated.
Blood for plasma PK analysis was collected on days 1 and 15 of Cycle 1, and on day 15 of Cycle 2, before dosing (t=0), at the end of dosing, and at 5, 15 and 30 min and 1, 1.5, 2, 4, 6 and 24 h after dosing; urine samples were collected cumulatively over 0–5 h and 5–24 h on days 1 and 15 of Cycle 1 following administration of carfilzomib to determine carfilzomib concentrations. Carfilzomib concentrations were determined using validated liquid chromatography tandem mass spectrometry (LC MS/MS) methods with a calibration range of 0.300–300 ng/ml for plasma samples and 4.0–2000 ng/ml for urine samples. Plasma concentration of carfilzomib versus time was plotted on days 1 and 15 in Cycle 1, and PK parameters were calculated using a non-compartmental constant infusion method using WinNonlin (Pharsight, Sunnyvale, CA, USA). To determine whether renal impairment affected the PK of carfilzomib, the relationship between renal function status and relevant PK parameters was evaluated. Statistical comparison (analysis of variance) of the ln-transformed dose-adjusted PK parameters was also performed between patients with normal renal function and each group of patients with renal impairment. For these parameters, 90% confidence intervals (CI) were calculated for the ratios between least squares of the mean (LSM) for each group versus the normal renal function group (Group 1). […] The primary PK parameters—apparent plasma clearance, dose-normalized AUCinf (total exposure), and the dose-normalized Cmax on day 1 and day 15 of Cycle 1—were also estimated as a function of CrCl by linear regression using a mixed-effects model (Y=β0+β1 × CrCl+β2 × Age+β3 × weight, where Y=PK parameter, β0 = intercept, and β1, β2 and β3 are slope parameters associated with CrCl, age and weight, respectively).

[4] = Safety: treatment-emergent adverse events (CTCAE Version 3.0); assay type: in vivo, human; conditions: for Anemia, Grades 3/4 / Decreased hemoglobin, Grades 3/4 / Dyspnea, Grades 3/4 / Fatigue, Grades 3/4 / Hypokalemia, Grades 3/4 / Lymphopenia, Grades 3/4 / Pain, Grades 3/4 / Pneumonia, Grades 3/4 / Thrombocytopenia, Grades 3/4: number of patients
Description: as §1

[5] = Urinary excretion of carfilzomib (LC MS/MS); assay type: in vivo, human
Description: Blood for plasma PK analysis was collected on days 1 and 15 of Cycle 1, and on day 15 of Cycle 2, before dosing (t=0), at the end of dosing, and at 5, 15 and 30 min and 1, 1.5, 2, 4, 6 and 24 h after dosing; urine samples were collected cumulatively over 0–5 h and 5–24 h on days 1 and 15 of Cycle 1 following administration of carfilzomib to determine carfilzomib concentrations. Carfilzomib concentrations were determined using validated liquid chromatography tandem mass spectrometry (LC MS/MS) methods with a calibration range of 0.300–300 ng/ml for plasma samples and 4.0–2000 ng/ml for urine samples. Plasma concentration of carfilzomib versus time was plotted on days 1 and 15 in Cycle 1, and PK parameters were calculated using a non-compartmental constant infusion method using WinNonlin (Pharsight, Sunnyvale, CA, USA). To determine whether renal impairment affected the PK of carfilzomib, the relationship between renal function status and relevant PK parameters was evaluated. Statistical comparison (analysis of variance) of the ln-transformed dose-adjusted PK parameters was also performed between patients with normal renal function and each group of patients with renal impairment. For these parameters, 90% confidence intervals (CI) were calculated for the ratios between least squares of the mean (LSM) for each group versus the normal renal function group (Group 1). […]

[6] = tested on: relapsed and/or refractory multiple myeloma; assay: Efficacy: best response (IMWG criteria with EBMT minimal response); assay type: in vivo, human; conditions: for Overall response rate: PR or better
Description: Patients who received at least 1 cycle of carfilzomib and had at least one post-baseline assessment for disease response were included in the efficacy analysis. Each evaluable patient's best response to treatment over the course of the study was evaluated by the investigator and sponsor using the International Myeloma Working Group Uniform Response Criteria, modified to include minimal response defined per the European Group for Blood and Marrow Transplantation.[17], [18] Responses assessed by the investigators at the end of the study are reported here. The overall response rate was defined as the proportion of PR or better responses, and the 95% Clopper-Pearson exact binomial CI was calculated. The duration of response was calculated as the time from the first evidence of a PR or better until confirmation of disease progression. Median time to progression and progression-free survival were assessed among all patients with >stable disease (s.d.). For progression-free survival, deaths due to causes other than disease progression were censored.

[7] = Group 1 (normal renal function), n=12
[8] = Group 2 (mild impairment), n=12
[9] = Group 3 (moderate impairment), n=10
[10] = Group 4 (severe impairment), n=8
[11] = Group 5 (chronic dialysis), n=8
[12] = All patients, n=28, patients who received dexamethasone ⩾20 mg before carfilzomib doses
[13] = All patients, n=47, all patients with response assessment
[14] = Group 1 (normal renal function), n=7, patients who received dexamethasone ⩾20 mg before carfilzomib doses
[15] = Group 1 (normal renal function), n=11, all patients with response assessment
[16] = Group 2 (mild impairment), n=8, patients who received dexamethasone ⩾20 mg before carfilzomib doses
[17] = Group 2 (mild impairment), n=11, all patients with response assessment
[18] = Group 3 (moderate impairment), n=4, patients who received dexamethasone ⩾20 mg before carfilzomib doses
[19] = Group 3 (moderate impairment), n=9, all patients with response assessment
[20] = Group 4 (severe impairment), n=5, patients who received dexamethasone ⩾20 mg before carfilzomib doses
[21] = Group 4 (severe impairment), n=8, all patients with response assessment
[22] = Group 5 (chronic dialysis), n=4, patients who received dexamethasone ⩾20 mg before carfilzomib doses
[23] = Group 5 (chronic dialysis), n=8, all patients with response assessment

CC(C)C[C@H](NC(=O)[C@H](CCc1ccccc1)NC(=O)CN1CCOCC1)C(=O)N[C@@H](Cc1ccccc1)C(=O)N[C@@H](CC(C)C)C(=O)[C@@]1(C)CO1 [carfilzomib]
ECG effects on heart rate, atrioventricular conduction, cardiac depolarization (QT, PR, QRS intervals) [1]: no clinically relevant effects
inhibition of proteasome CT-L activity from pre-dose levels ([2]; RBCs and peripheral blood mononuclear cells, one hour after the first dose, 15 mg/m^2, range across groups): 73–87%
recovery of proteasome CT-L activity in RBCs ([2]; by the start of Cycle 2, cumulative inhibition during first treatment cycle): little to no recovery
recovery of proteasome activity in peripheral blood mononuclear cells ([2]; day 8 (5 days after the most recent dose) and beginning of Cycle 2 (12 days after dosing)): complete or near to complete
Slope (95% CI) of linear regression of AUCinf as a function of creatinine clearance [3]: 0.012 (−0.030, 0.054)
Slope (95% CI) of linear regression of AUClast (h·ng/ml) as a function of creatinine clearance [3]: 0.008 (−0.031, 0.048)
Slope (95% CI) of linear regression of Cmax (ng/ml) as a function of creatinine clearance [3]: 0.225 (−0.242, 0.692)
Slope (95% CI) of linear regression of carfilzomib clearance (l/h) as a function of creatinine clearance [3]: −0.607 (−2.129, 0.914)
CL ([3]; iv): 110 L/h
median terminal half life (t1/2) ([3]; iv): less than 60 min
Anemia, Grades 3/4 [4, 7]: 2
Decreased hemoglobin, Grades 3/4 [4, 7]: 1
Dyspnea, Grades 3/4 [4, 7]: 0
Fatigue, Grades 3/4 [4, 7]: 2
Hypokalemia, Grades 3/4 [4, 7]: 1
Lymphopenia, Grades 3/4 [4, 7]: 2
Pain, Grades 3/4 [4, 7]: 0
Pneumonia, Grades 3/4 [4, 7]: 1
Thrombocytopenia, Grades 3/4 [4, 7]: 1
Anemia, Grades 3/4 [4, 8]: 4
Decreased hemoglobin, Grades 3/4 [4, 8]: 0
Dyspnea, Grades 3/4 [4, 8]: 0
Fatigue, Grades 3/4 [4, 8]: 1
Hypokalemia, Grades 3/4 [4, 8]: 1
Lymphopenia, Grades 3/4 [4, 8]: 3
Pain, Grades 3/4 [4, 8]: 2
Pneumonia, Grades 3/4 [4, 8]: 1
Thrombocytopenia, Grades 3/4 [4, 8]: 5
Anemia, Grades 3/4 [4, 9]: 5
Decreased hemoglobin, Grades 3/4 [4, 9]: 1
Dyspnea, Grades 3/4 [4, 9]: 2
Fatigue, Grades 3/4 [4, 9]: 2
Hypokalemia, Grades 3/4 [4, 9]: 0
Lymphopenia, Grades 3/4 [4, 9]: 1
Pain, Grades 3/4 [4, 9]: 3
Pneumonia, Grades 3/4 [4, 9]: 3
Thrombocytopenia, Grades 3/4 [4, 9]: 3
Anemia, Grades 3/4 [4, 10]: 2
Decreased hemoglobin, Grades 3/4 [4, 10]: 1
Dyspnea, Grades 3/4 [4, 10]: 1
Fatigue, Grades 3/4 [4, 10]: 1
Hypokalemia, Grades 3/4 [4, 10]: 1
Lymphopenia, Grades 3/4 [4, 10]: 2
Pain, Grades 3/4 [4, 10]: 0
Pneumonia, Grades 3/4 [4, 10]: 1
Thrombocytopenia, Grades 3/4 [4, 10]: 1
Anemia, Grades 3/4 [4, 11]: 1
Decreased hemoglobin, Grades 3/4 [4, 11]: 1
Dyspnea, Grades 3/4 [4, 11]: 1
Fatigue, Grades 3/4 [4, 11]: 1
Hypokalemia, Grades 3/4 [4, 11]: 1
Lymphopenia, Grades 3/4 [4, 11]: 1
Pain, Grades 3/4 [4, 11]: 0
Pneumonia, Grades 3/4 [4, 11]: 0
Thrombocytopenia, Grades 3/4 [4, 11]: 0
Grade 3/4 anemia, incidence ([4]; all patients, n=50): 28.0%
Grade 3/4 fatigue, incidence ([4]; all patients, n=50): 14.0%
Grade 3/4 lymphopenia, incidence ([4]; all patients, n=50): 18.0%
Grade 3/4 thrombocytopenia, incidence ([4]; all patients, n=50): 20.0%
AEs leading to dose reduction ([4]; in vivo): 18.0%
Clinical congestive heart failure ([4]; in vivo): four
Grade 3 neuropathy during the study ([4]; in vivo): 2.0%
Serious AE acute renal failure ([4]; in vivo): 6.0%
Serious AE congestive heart failure ([4]; in vivo): 6.0%
Serious AE dehydration ([4]; in vivo): 6.0%
Serious AE pneumonia ([4]; in vivo): 16.0%
Serious AEs, patients ([4]; in vivo): 66.0%
anemia of any grade, incidence ([4]; in vivo): 50.0%
diarrhea of any grade, incidence ([4]; in vivo): 36.0%
elevations in serum creatinine from Grade ⩽2 at baseline to Grade 3 at any point after beginning treatment ([4]; in vivo): Five
fatigue of any grade, incidence ([4]; in vivo): 56.0%
incidence of treatment-emergent or worsening neuropathy of any grade ([4]; in vivo): 12.0%
nausea of any grade, incidence ([4]; in vivo): 36.0%
patients with at least one treatment-emergent AE ([4]; in vivo): 94.0%
worsening of renal function to Grade 3 ([4]; in vivo): 12.0%
Grade 3/4 infection: respiratory tract infection ([4]; n=2 of 50): 4.0%
Grade 3/4 infection: sepsis ([4]; n=2 of 50): 4.0%
Grade 3/4 infection: influenza ([4]; n=3 of 50): 6.0%
Grade 3/4 infection: bacterial pneumonia ([4]; n=6 of 50): 12.0%
deaths on study or within 30 days of discontinuation of treatment ([4]; n=50, all attributed primarily to disease progression): five
Serious AE influenza ([4]; three patients of 50): 6.0%
total amount of carfilzomib recovered in the urine, of the administered dose ([5]; all groups, Days 1 and 15 of Cycle 1, within 24 h post-dosing): less than 1%
mean total concentration of carfilzomib in urine ([5]; group with normal renal function, day 1 of Cycle 1, 15 mg/m^2 IV, post-dose urine collection, LC MS/MS): 0.157 mg
Complete response [6, 12]: 0 n (%)
Minimal response [6, 12]: 3 (10.7) n (%)
Progressive disease [6, 12]: 5 (17.9) n (%)
Stable disease [6, 12]: 10 (35.7) n (%)
Very good PR [6, 12]: 0 n (%)
Overall response rate ([6]; All patients, n=47): 12 (25.5) n (%)
Complete response [6, 13]: 0 n (%)
Progressive disease [6, 13]: 10 (21.3) n (%)
Stable disease [6, 13]: 21 (44.7) n (%)
Very good PR [6, 13]: 0 n (%)
Duration of response, median (95% CI) ([6]; All patients, NE, not estimated due to censoring): 7.9 months
Complete response [6, 14]: 0 n (%)
Minimal response [6, 14]: 1 n (%)
Progressive disease [6, 14]: 0 n (%)
Stable disease [6, 14]: 3 (42.9) n (%)
Very good PR [6, 14]: 0 n (%)
Minimal response [6, 15]: 1 (9.1) n (%)
Progressive disease [6, 15]: 1 (9.1) n (%)
Duration of response, median (95% CI) ([6]; Group 1 (normal renal function), NE, not estimated due to censoring): NE (2.0–NE)
Complete response [6, 16]: 0 n (%)
Minimal response [6, 16]: 1 (12.5) n (%)
Progressive disease [6, 16]: 3 (37.5) n (%)
Stable disease [6, 16]: 1 (12.5) n (%)
Very good PR [6, 16]: 0 n (%)
Overall response rate ([6]; Group 2 (mild impairment), n=11): 3 (27.3) n (%)
Complete response [6, 17]: 0 n (%)
Minimal response [6, 17]: 1 (9.1) n (%)
Stable disease [6, 17]: 3 (27.3) n (%)
Very good PR [6, 17]: 0 n (%)
Duration of response, median (95% CI) ([6]; Group 2 (mild impairment), NE, not estimated due to censoring): NE (4.2–NE)
Complete response [6, 18]: 0 n (%)
Minimal response [6, 18]: 0 n (%)
Progressive disease [6, 18]: 0 n (%)
Stable disease [6, 18]: 3 (75.0) n (%)
Very good PR [6, 18]: 0 n (%)
Overall response rate ([6]; Group 3 (moderate impairment), n=9): 2 (22.2) n (%)
Complete response [6, 19]: 0 n (%)
Minimal response [6, 19]: 0 n (%)
Progressive disease [6, 19]: 3 (33.3) n (%)
Stable disease [6, 19]: 4 (44.4) n (%)
Very good PR [6, 19]: 0 n (%)
Duration of response, median (95% CI) ([6]; Group 3 (moderate impairment), NE, not estimated due to censoring): NE (2.3–NE)
Complete response [6, 20]: 0 n (%)
Minimal response [6, 20]: 1 (20.0) n (%)
Progressive disease [6, 20]: 2 (40.0) n (%)
Stable disease [6, 20]: 2 (40.0) n (%)
Very good PR [6, 20]: 0 n (%)
Overall response rate [6, 10]: 2 (25.0) n (%)
Complete response [6, 21]: 0 n (%)
Minimal response [6, 21]: 1 (12.5) n (%)
Progressive disease [6, 21]: 2 (25.0) n (%)
Stable disease [6, 21]: 3 (37.5) n (%)
Very good PR [6, 21]: 0 n (%)
Duration of response, median (95% CI) ([6]; Group 4 (severe impairment), NE, not estimated due to censoring): NE (7.9–NE)
Duration of response, median (95% CI) ([6]; Group 5 (chronic dialysis)): 7.9 (6.5–8.5) months
Complete response [6, 22]: 0 n (%)
Minimal response [6, 22]: 0 n (%)
Progressive disease [6, 22]: 0 n (%)
Stable disease [6, 22]: 1 (25.0) n (%)
Very good PR [6, 22]: 0 n (%)
Overall response rate [6, 11]: 3 (37.5) n (%)
Complete response [6, 23]: 0 n (%)
Minimal response [6, 23]: 0 n (%)
Progressive disease [6, 23]: 0 n (%)
Stable disease [6, 23]: 4 (50.0) n (%)
Very good PR [6, 23]: 0 n (%)
Response improved to PR after the addition of dexamethasone ([6]; nine of 28 patients who received dexamethasone before each carfilzomib dose after Cycle 2): 32.1%
